Measured values from article PMC4055159, “Application of Molecular Modeling to Urokinase Inhibitors Development” (BioMed Research International, 2014).
Where two headings read alike, the source gives them in different places.

How the values were obtained:
[1] = molecular target: urokinase (uPA) (Homo sapiens, UniProt P00749); assay: urokinase inhibition testing in vitro, chromogenic substrate S-2444, optical density at 405 nm; assay type: biochemical; details: read-out: Experiment, uPA inhibition activity (IC50)
Protocol: After selection of the most promising candidates for new urokinase inhibitors, we tested their inhibition activities in vitro. The experiments were carried out on the system with the urokinase specimen, the tested ligand, and the special substrate—a synthetic Pyro-Glu-Gly-Arg-pNA peptide (S-2444). Urokinase decomposes the substrate with production of the chromogenic product. When the inhibitor binds to the urokinase active site, this production is slowed down. The higher the inhibition activity of the ligand, the slower the working of urokinase and the slower the accumulation of chromogenic product. Thus, the inhibitory activity can be measured by the rate of optical density change at the 405 nm wavelength. […] Error of the method for IC50 measurement in micromole range is about […].
Experimental tests were performed as indicated in paragraph 3.5 of “Methods.” Urokinase proteolytic activity in the presence of inhibitor (and also in absence of inhibitor, labeled “control” in Figure 4) was determined by releasing the paranitroanilide by means of measuring of absorption with a wave length of 405 nm each minute at 30°C. Figure 4 is a diagram of relationship between optical density and time. The angle of curve describes the reaction rate: the lower it is (compared with “control”, which corresponds to urokinase without inhibitors), the better inhibitor works.

[2] = molecular target: human uPA; set-up: method as in PMID 15582418, PMID 12113833, PMID 11755349, PMID 15149680, PMID 17447747; details: read-out: K i against human uPA; cited from earlier work
[3] = set-up: method as in PMID 19200050; details: cited from earlier work
[4] = molecular target: uPA; set-up: method as in PMID 8495419; details: cited from earlier work

IC50 ([1]; synthesized compounds, Table 8)	Compound	other results
200 µM	CC(=O)Nc1ccc2[nH]c(N)nc2c1 [U017R]	–
> 500 µM	N=C(N)Sc1ccccc1 [U002R]	–
> 500 µM	N=C(N)Sc1ccc(Br)cn1 [U007R]	–
–	Cc1[nH]c2ccc(Oc3ccccc3)cc2c1CCN [TRY-0074]	IC50 ([1]; ordered compounds, Table 7): 260 µM
500 µM	Nc1nc2cc(F)ccc2[nH]1 [U020R]	–
> 500 µM	Nc1cc2ccccc2cn1 [U003P]	–
–	CCOC(=O)N1CCN(C(=O)C(Cc2cccc(C(=N)N)c2)NS(=O)(=O)c2c(C(C)C)cc(C(C)C)cc2C(C)C)CC1 (centres unmarked) [WX-UK1]	Ki [2]: 0.6 µM; oral absorption [3]: not absorbed orally
200 µM	Nc1ccc2[nH]c(N)nc2c1 [U014R]	–
> 500 µM	N=C(N)Sc1ccccn1 [U001R]	–
> 500 µM	Nc1nc2cc([N+](=O)[O-])ccc2[nH]1 [U014aR]	–
> 500 µM	Nc1nc2cc(NS(=O)(=O)c3ccccc3)ccc2[nH]1 [U015R]	–
–	Nc1ncc(-c2ccc(F)cc2)[nH]1 [AIM-0027]	IC50 ([1]; ordered compounds, Table S2): 500 µM
> 500 µM	Nc1nc(-c2ccc3ccccc3c2)cs1 [U009T]	–
–	N=C(N)c1cc2c(I)cccc2s1 [B428]	Ki [4]: 0.53 µM
500 µM	Nc1nc(-c2ccccc2)c[nH]1 [U005r]	–
500 µM	COc1ccc2nc(N)[nH]c2c1 [U019R]	–
33 µM	N=C(N)Nc1nsc2ccccc12 [U024R, 1,2-benzisothiazol-3-yl-guanidine]	–
500 µM	N=C(N)Nc1n[nH]c2ccccc12 [U021R]	–
> 500 µM	Cc1cccc(C)c1OCC1CN=C(N)O1 (centres unmarked) [U013T]	–
4 to 20 µM	N=C(N)Nc1nsc2ccc(Br)cc12 [U026R, (5-bromo-1,2-benzisothiazol-3-yl) guanidine]	–

Compound	IC50 ([1]; synthesized compounds, Table 8)	other results
NC1=NCC(COc2ccccc2)O1 (centres unmarked) [U006R]	> 500 µM	–
NC1=NCC(COc2c(Cl)cccc2Cl)O1 (centres unmarked) [U012T]	> 500 µM	–
